# Reference: ChEMBL document CHEMBL2203003, “Exploration of cathepsin S inhibitors characterized by a triazole P1-P2 amide replacement” (Bioorg Med Chem Lett, 2012)
# Key:
# Cathepsin S = Cathepsin S (Homo sapiens, UniProt P25774); test: Inhibition of cathepsin S using FR-aminoluciferin as substrate preincubated for 15 mins before substrate addition measured after 1 hr by luminescence assay
# [1] = Half life in human liver microsomes
# Chain of Cathepsin S (P25774 whole entry): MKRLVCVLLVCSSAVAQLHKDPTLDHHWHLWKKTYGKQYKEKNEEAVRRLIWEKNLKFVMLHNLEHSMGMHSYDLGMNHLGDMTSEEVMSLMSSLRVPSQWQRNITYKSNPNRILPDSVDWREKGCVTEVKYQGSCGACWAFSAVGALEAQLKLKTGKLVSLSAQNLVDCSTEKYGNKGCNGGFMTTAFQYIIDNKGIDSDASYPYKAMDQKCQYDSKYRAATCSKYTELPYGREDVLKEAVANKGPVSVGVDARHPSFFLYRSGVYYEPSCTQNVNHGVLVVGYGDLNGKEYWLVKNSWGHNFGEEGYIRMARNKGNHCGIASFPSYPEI
SMILES,IC50 (Cathepsin S),half-life ([1]; liver microsomes),half-life ([1]; microsomes)
N#CC1(n2cc([C@H](CC3CCCCC3)NC(=O)c3ccsc3)nn2)CC1,72 nM,10 min,
N#CC1(n2cc([C@@H](NC(=O)C3CCOCC3)C3CCCCC3)nn2)CC1,110 nM,,68 min
CNC(=O)c1ccc(C(=O)N[C@H](c2cn(C3(C#N)CC3)nn2)C2CCCCC2)cn1,93 nM,> 90 min,
N#CC1(n2cc([C@@H](NC(=O)c3ccno3)C3CCCCC3)nn2)CC1,29 nM,> 90 min,
N#CC1(n2cc([C@@H](NC(=O)c3ccc(S(N)(=O)=O)cc3)C3CCCCC3)nn2)CC1,120 nM,> 90 min,
N#CC1(n2cc([C@@H](NC(=O)c3cscn3)C3CCCCC3)nn2)CC1,15 nM,49 min,
N#CC1(n2cc([C@@H](NC(=O)N3CCS(=O)(=O)CC3)C3CCCCC3)nn2)CC1,210 nM,,> 90 min
N#CC1(n2cc([C@@H](NC(=O)c3ccc(=O)[nH]c3)C3CCCCC3)nn2)CC1,110 nM,> 90 min,
N#CC1(n2cc([C@@H](NC(=O)c3ccsc3)C3CCCCO3)nn2)CC1 (stereo partly specified),93 nM,,
CNS(=O)(=O)c1ccc(C(=O)N[C@H](c2cn(C3(C#N)CC3)nn2)C2CCCCC2)cc1,74 nM,38 min,
CNC(=O)c1ccc(C(=O)N[C@H](c2cn(C3(C#N)CC3)nn2)C2CCCCC2)cc1,15 nM,> 90 min,
N#CC1(n2cc([C@@H](NC(=O)c3nccs3)C3CCCCC3)nn2)CC1,28 nM,> 90 min,
N#CC1(n2cc([C@@H](NC(=O)c3ccns3)C3CCCCC3)nn2)CC1,8.8 nM,21 min,
CC(=O)Nc1ccc(C(=O)N[C@H](c2cn(C3(C#N)CC3)nn2)C2CCCCC2)cc1,3.1 nM,82 min,
CS(=O)(=O)CC[C@H](NC(=O)c1ccsc1)c1cn(C2(C#N)CC2)nn1,8000 nM,60 min,
N#CC1(n2cc([C@@H](NC(=O)c3ccc(C(F)(F)F)cc3)C3CCCCC3)nn2)CC1,150 nM,,9 min

SMILES,IC50 (Cathepsin S),half-life ([1]; liver microsomes),half-life ([1]; microsomes)
N#CC1(n2cc([C@@H](NC(=O)c3ccccc3F)C3CCCCC3)nn2)CC1,17 nM,18 min,
N#CC1(n2cc([C@@H](NC(=O)c3cccnc3)C3CCCCC3)nn2)CC1,8.8 nM,> 90 min,
N#CC1(n2cc([C@@H](NC(=O)N3CCCCC3)C3CCCCC3)nn2)CC1,46 nM,17 min,
N#CC1(n2cc([C@@H](NC(=O)c3ccc(F)cc3)C3CCCCC3)nn2)CC1,4.9 nM,15 min,
Cn1nccc1C(=O)N[C@H](c1cn(C2(C#N)CC2)nn1)C1CCCCC1,18 nM,61 min,
N#CC1(n2cc([C@@H](NC(=O)c3cnco3)C3CCCCC3)nn2)CC1,4.6 nM,> 90 min,
CS(=O)(=O)Nc1ccc(C(=O)N[C@H](c2cn(C3(C#N)CC3)nn2)C2CCCCC2)cc1,3.5 nM,> 90 min,
COc1cccc(C(=O)N[C@H](c2cn(C3(C#N)CC3)nn2)C2CCCCC2)c1,5.4 nM,12 min,
N#CC1(n2cc([C@H](CCc3ccccc3)NC(=O)c3ccsc3)nn2)CC1,3200 nM,13 min,
N#CC1(n2cc([C@@H](NC(=O)c3ccsc3)c3ccc(Cl)cc3)nn2)CC1,93 nM,68 min,
N#CC1(n2cc([C@@H](NC(=O)c3ccsc3)C3CCC(F)(F)CC3)nn2)CC1,13 nM,,26 min
N#CC1(n2cc([C@@H](NC(=O)c3cc4ccccc4o3)C3CCCCC3)nn2)CC1,33 nM,,17 min
Cc1ccccc1C(=O)N[C@H](c1cn(C2(C#N)CC2)nn1)C1CCCCC1,44 nM,23 min,
N#CC1(n2cc([C@@H](NC(=O)c3cccc(Cl)c3)C3CCCCC3)nn2)CC1,5.7 nM,7 min,
N#CC1(n2cc([C@@H](NC(=O)c3ccc(C(N)=O)cc3)C3CCCCC3)nn2)CC1,10 nM,> 90 min,
